Like-named read-outs stand apart in the source and are kept apart here.
What was measured:
[1] = biological target: T1, human muscarinic M4 receptor (Homo sapiens, UniProt P08173); assay: Alphascreen Surefire phospho-ERK1/2 functional assay, M4; format: cell-based; settings: for EC50 / % Emax cf. ACh (M4): CHO cells stably expressing human M4; for EC50: read-out: pEC50 M4 (converted); for Emax: CHO
T1 construct: expressed in transfected cells
T1 sequence (P08173 1-479): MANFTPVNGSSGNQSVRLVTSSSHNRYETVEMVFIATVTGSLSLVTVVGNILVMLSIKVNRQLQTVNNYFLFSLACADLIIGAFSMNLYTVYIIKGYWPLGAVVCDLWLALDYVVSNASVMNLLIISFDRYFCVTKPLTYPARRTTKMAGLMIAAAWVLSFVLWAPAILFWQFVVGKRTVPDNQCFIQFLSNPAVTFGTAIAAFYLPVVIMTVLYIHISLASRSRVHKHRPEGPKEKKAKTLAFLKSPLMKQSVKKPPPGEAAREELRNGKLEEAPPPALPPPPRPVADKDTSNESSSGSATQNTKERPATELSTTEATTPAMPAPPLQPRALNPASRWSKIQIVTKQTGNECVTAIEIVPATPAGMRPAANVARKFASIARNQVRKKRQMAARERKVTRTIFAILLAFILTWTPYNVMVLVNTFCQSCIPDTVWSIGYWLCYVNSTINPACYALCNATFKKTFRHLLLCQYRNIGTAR

[2] = biological target: T2, human muscarinic M1 receptor (Homo sapiens, UniProt P11229); assay: Alphascreen Surefire phospho-ERK1/2 functional assay, M1; format: cell-based; settings: for EC50 / % Emax cf. ACh (M1): CHO cells stably expressing human M1; for EC50: read-out: pEC50 M1 (converted); for Emax: CHO
T2 sequence (P11229 1-460): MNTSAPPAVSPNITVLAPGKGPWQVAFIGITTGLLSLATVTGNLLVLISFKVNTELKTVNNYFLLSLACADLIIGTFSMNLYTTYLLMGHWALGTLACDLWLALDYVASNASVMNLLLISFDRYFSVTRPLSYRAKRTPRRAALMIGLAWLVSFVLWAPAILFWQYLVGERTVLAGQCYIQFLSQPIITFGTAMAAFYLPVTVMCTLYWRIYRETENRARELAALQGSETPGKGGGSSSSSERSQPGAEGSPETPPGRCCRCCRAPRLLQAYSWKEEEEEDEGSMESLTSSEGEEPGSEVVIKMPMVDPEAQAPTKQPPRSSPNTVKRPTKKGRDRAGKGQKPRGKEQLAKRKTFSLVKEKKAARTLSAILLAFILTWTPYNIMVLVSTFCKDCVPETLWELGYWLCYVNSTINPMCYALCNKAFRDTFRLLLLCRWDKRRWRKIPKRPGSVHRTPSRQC
Protocol: ERK1/2 phosphorylation is a downstream consequence of both Gq/11 and Gi/o protein coupled receptor activation, making it highly suitable for the assessment of M1, M3 (Gq/11 coupled) and M2, M4 receptors (Gi/o coupled), rather than using different assay formats for different receptor subtypes. CHO cells stably expressing the human muscarinic M1, M2, M3 or M4 receptor were plated (25K/well) onto 96-well tissue culture plates in MEM-alpha+10% dialysed FBS. Once adhered, cells were serum-starved overnight. Agonist stimulation was performed by the addition of 5 μL agonist to the cells for 5 min (37° C.). Media was removed and 50 μL of lysis buffer added. After 15 min, a 4 μL sample was transferred to 384-well plate and 7 μL of detection mixture added.

[3] = read-out: % Emax cf. ACh (M4), CHO cells stably expressing human M4, phospho-ERK1/2, relative to ACh
[4] = read-out: % Emax cf. ACh (M1), CHO cells stably expressing human M1, phospho-ERK1/2, relative to ACh
[5] = phospho-ERK1/2, relative to ACh

| Compound | EC50 ([1]; phospho-ERK1/2) [µM] | Emax [1, 3] [%] | EC50 ([2]; phospho-ERK1/2) [µM] | Emax [2, 4] [%] | % Emax cf. ACh (M4) [1, 5] [%] | % Emax cf. ACh (M1) [2, 5] [%] | Emax ([1]; read-out: % Emax cf. ACh (M4)) [%] | Emax ([2]; read-out: % Emax cf. ACh (M1)) [%] |
| --- | --- | --- | --- | --- | --- | --- | --- | --- |
| CCOC(=O)N1CCC2(CC(N3CCC(N(CC(F)(F)F)C(C)=O)CC3)C2)C1 (single isomer, unassigned) [2-25 Isomer 2] | 0.1 | 101 | 3.98 | 125 |  |  |  |  |
| CCOC(=O)N1CCC2(CC(N3CCC(N(CC)CCS(C)(=O)=O)CC3)C2)C1 (single isomer, unassigned) [2-56 Isomer 2] | 1.26 | 41 | > 20 | 7 |  |  |  |  |
| CCOC(=O)N1CC2(CC(N3CCC(N(CC)C(C)=O)CC3)C2)C1 [Example 1-2, Ethyl 6-{4-[acetyl(ethyl)amino]piperidin-1-yl}-2-azaspiro[3.3]heptane-2-carboxylate] | 0.251 | 103 | 6.31 | 59 |  |  |  |  |
| CCOC(=O)N1CCC2(CC(N3CCC(N(CC(C)(C)F)C(C)=O)CC3)C2)C1 (single isomer, unassigned) [2-26 Isomer 1] | 1 |  | > 20 |  | 52 | 23 |  |  |
| CCOC(=O)N1CCC2(CC(N3CCC(N(CC(C)(C)OC)C(C)=O)CC3)C2)C1 (single isomer, unassigned) [2-29 Isomer 1] | 1.26 |  | > 20 |  | 56 | 17 |  |  |
| CCOC(=O)N1CCC2(CC(N3CCC(N(CC(F)(F)F)C(=O)OCCOC)CC3)C2)C1 (single isomer, unassigned) [2-43 Isomer 2] | 0.126 | 91 | 2.51 | 35 |  |  |  |  |
| CCOC(=O)N1CCC2(CC(N3CCC(N(CCO)c4ccccc4)CC3)C2)C1 (single isomer, unassigned) [2-58 Isomer 2] | 0.251 |  | 1.26 |  |  |  | 74 | 63 |
| CCOC(=O)N1CCC2(CC(N3CCC(N(CC4(OC)CCC4)C(C)=O)CC3)C2)C1 (single isomer, unassigned) [2-30 Isomer 1] | 0.126 |  | 1.26 |  | 59 | 33 |  |  |

Now from value to compound, other results behind:

| EC50 ([1]; phospho-ERK1/2) [µM] | Emax [1, 3] [%] | EC50 ([2]; phospho-ERK1/2) [µM] | Emax [2, 4] [%] | % Emax cf. ACh (M4) [1, 5] [%] | % Emax cf. ACh (M1) [2, 5] [%] | Compound | Emax ([1]; read-out: % Emax cf. ACh (M4)) [%] | Emax ([2]; read-out: % Emax cf. ACh (M1)) [%] |
| --- | --- | --- | --- | --- | --- | --- | --- | --- |
| 0.2 | 107 | 2 | 89 |  |  | CCCN(C(C)=O)C1CCN(C2CC3(CCN(C(=O)OCC)C3)C2)CC1 (single isomer, unassigned) [2-18 Isomer 2] |  |  |
| 0.2 |  | 3.98 |  | 62 | 27 | CCOC(=O)N1CCC2(CC(N3CCC(N(CC4(O)CCC4)C(C)=O)CC3)C2)C1 (single isomer, unassigned) [2-31 Isomer 1] |  |  |
| 0.251 | 70 | > 20 | 17 |  |  | CCOC(=O)N1CCC2(CC(N3CCC(N(CCO)C4CCC4)CC3)C2)C1 (single isomer, unassigned) [2-50 Isomer 2] |  |  |
| > 20 |  | 2 | 78 | 13 |  | CCOC(=O)N1CCC2(CC(N3CCC(N(C(C)=O)C4CC4)CC3)C2)C1 (single isomer, unassigned) [2-3 Isomer 1] |  |  |
| 0.251 | 62 | > 20 | 42 |  |  | CCOC(=O)N1CCC2(CC(N3CCC(N(CC)C4COC4)CC3)C2)C1 (single isomer, unassigned) [2-53 Isomer 2] |  |  |
| 1.26 | 78 | > 20 | 8 |  |  | CCOC(=O)N1CCC2(CC(N3CCC(N(CCO)C4CC4)CC3)C2)C1 (single isomer, unassigned) [2-49 Isomer 2] |  |  |
| 0.316 |  | 15.8 |  |  | 51 | CCOC(=O)N1CCC2(CC(N3CCC(N(CC4(C)CCC4)C(C)=O)CC3)C2)C1 (single isomer, unassigned) [2-21 Isomer 1] |  |  |
| 0.251 |  | 1.26 |  | 62 | 32 | CCOC(=O)N1CCC2(CC(N3CCC(N(CC(C)C)C(C)=O)CC3)C2)C1 (single isomer, unassigned) [2-19 Isomer 1] |  |  |

Source: patent US10167272B2, “Muscarinic agonists” (Heptares Therapeutics Limited, priority 2015, dated 2019)
